Data from US20220281848A1, “PYRAZOLE-SUBSTITUTED PYRROLIDINONES AS HERBICIDES” (FMC Corporation, priority 2019, published 2022).

Columns and labels:
Assay type in all cases: in vivo
[1] = test system: velvetleaf (Abutilon theophrasti, ABUTH); assay: Test A pre-emergence, velvetleaf; details: after 13 d
Method in brief: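 Values are percent plant damage 13 d after a pre-emergence spray (15.625, 62.5 or 250 g/ha; acetone/water with 0.5% Tween 20) applied to pots one day post-sowing, under glasshouse conditions of 24/16° C. and twice-daily watering.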

[2] = test system: giant foxtail (Setaria faberi, SETFA); assay: Test A post-emergence, giant foxtail; details: after 13 d
Method in brief: (§1)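 Foliar application to 8-day-old seedlings at 15.625, 62.5 or 250 g/ha; phytotoxicity scored 0–100 after 13 d.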

[3] = test system: redroot pigweed (Amaranthus retroflexus, AMARE); assay: Test A post-emergence, redroot pigweed; details: after 13 d
Method in brief: as §1

[4] = test system: velvetleaf (Abutilon theophrasti, ABUTH); assay: Test A post-emergence, velvetleaf; details: after 13 d
Method in brief: as §1

maize = assay: Test D post-emergence, maize seed treated with a herbicide safener
Method: (§2) A formulation containing 50 g/L of the test chemical was prepared by dissolving the active ingredient in a mixture of organic solvents and emulsifier, details of which are provided in the table. This formulation was then mixed with a small, variable amount of acetone to aid dissolution, before addition of a 0.2% v/v aqueous solution of an adjuvant, as the aqueous diluent, to form an aqueous spray solution which contains a predetermined concentration of the active ingredient.
(§3) This aqueous spray solution was then sprayed onto plants including maize and wheat that had been seed treated with a herbicide safener, after one day's cultivation (for pre-emergence) or after about 12 days' cultivation (for post-emergence). The plants were grown from seeds sown in standard soil, placed in a glasshouse under controlled conditions (at 24/18° C. or 20/16° C., day/night; 16 h light; 65% humidity). After spray application the plants were then grown in a glasshouse under the same conditions and watered twice daily. After 15 d for post-emergence and 20 DAA for pre-emergence the test was evaluated (100=total damage to plant; 0=no damage to plant).

wheat = assay: Test D post-emergence, wheat seed treated with a herbicide safener; details: "Cereals" Postemergent
Method: as §2, §3

[5] = Rates 130, evaluated after 15 d
[6] = Rates 250, evaluated after 15 d
[7] = Rates 500, evaluated after 15 d

| SMILES | damage to plant (100=total damage; 0=no damage) ABUTH ([1]; Pre-Emergence at 15.625 g/ha) | damage to plant (100=total damage; 0=no damage) ABUTH ([1]; Pre-Emergence at 62.5 g/ha) | damage to plant (100=total damage; 0=no damage) ABUTH ([1]; Pre-Emergence at 250 g/ha) | damage to plant (100=total damage; 0=no damage) SETFA ([2]; Post-Emergence at 15.625 g/ha) | damage to plant (100=total damage; 0=no damage) SETFA ([2]; Post-Emergence at 62.5 g/ha) | damage to plant (100=total damage; 0=no damage) SETFA ([2]; Post-Emergence at 250 g/ha) | damage to plant (100=total damage; 0=no damage) AMARE ([3]; Post-Emergence at 15.625 g/ha) | damage to plant (100=total damage; 0=no damage) AMARE ([3]; Post-Emergence at 62.5 g/ha) | damage to plant (100=total damage; 0=no damage) AMARE ([3]; Post-Emergence at 250 g/ha) | damage to plant (100=total damage; 0=no damage) ABUTH ([4]; Post-Emergence at 15.625 g/ha) | damage to plant (100=total damage; 0=no damage) ABUTH ([4]; Post-Emergence at 62.5 g/ha) | damage to plant (100=total damage; 0=no damage) ABUTH ([4]; Post-Emergence at 250 g/ha) | damage to plant (100=total damage to plant; 0=no damage to plant), ZEAMX (maize; rate 130, evaluated after 15 d) | damage to plant (100=total damage to plant; 0=no damage to plant), ZEAMX (maize; rate 250, evaluated after 15 d) | damage to plant (100=total damage to plant; 0=no damage to plant), ZEAMX (maize; rate 500, evaluated after 15 d) | TRZAW damage rating (100=total damage to plant; 0=no damage to plant) (wheat; [5]) | TRZAW damage rating (100=total damage to plant; 0=no damage to plant) (wheat; [6]) | TRZAW damage rating (100=total damage to plant; 0=no damage to plant) (wheat; [7]) |
| --- | --- | --- | --- | --- | --- | --- | --- | --- | --- | --- | --- | --- | --- | --- | --- | --- | --- | --- |
| CN1C[C@H](c2nn(C)c3c(F)cccc23)[C@@H](C(=O)Nc2cccc(F)c2F)C1=O [Compound 2] | 0 | 0 | 0 | 0 | 70 | 80 | 0 | 0 | 0 | 0 | 0 | 0 | 0 | 0 | 20 | 20 | 20 | 60 |
| CN1CC(c2cc(C(F)(F)F)n(C)n2)C(C(=O)Nc2ccc(F)c(F)c2F)C1=O (racemic) [Compound 17] | 0 | 0 | 10 | 60 | 70 | 80 | 0 | 20 | 50 | 0 | 0 | 0 | 0 | 0 | 0 | 0 | 40 | 70 |
| CN1CC(c2cc(C(F)(F)F)n(C)n2)C(C(=O)Nc2cccc(F)c2F)C1=O (racemic) [Compound 3] | 0 | 0 | 10 | 80 | 90 | 90 | 0 | 10 | 20 | 0 | 0 | 0 | 0 | 0 | 10 | 0 | 0 | 50 |
| CN1CC(c2cc(C(F)(F)F)n(C)n2)C(C(=O)Nc2ccc(F)cc2C(C)(F)F)C1=O (racemic) [Compound 26] | – | 0 | 0 | – | 80 | 90 | – | 0 | 0 | – | 0 | 0 | 0 | 0 | 10 | 0 | 0 | 40 |
| CCn1nc([C@@H]2CN(C)C(=O)[C@H]2C(=O)Nc2cccc(F)c2F)c2cccc(F)c21 [Compound 14] | 0 | 0 | 0 | 80 | 80 | 90 | 0 | 0 | 0 | 0 | 0 | 0 | 0 | 0 | 20 | 10 | 70 | 80 |
| CN1CC(c2cc(C(F)(F)F)n(C)n2)C(C(=O)Nc2cccc(F)c2C(F)(F)F)C1=O (racemic) [Compound 19] | 0 | 0 | 0 | 70 | 70 | 80 | 0 | 0 | 30 | 0 | 0 | 0 | 0 | 0 | 30 | 0 | 0 | 20 |
